Results published in patent US20170151351A1, “Gd-ENCAPSULATED CARBON DOTS AND METHODS OF MAKING AND USING THEREOF” (University of Georgia Research Foundation, Inc., priority 2015, published 2017).

Columns and labels:
[1] = at 7T, literature comparison; cited from earlier work
[2] = system: U87MG (human glioma) cells; conditions: no added Ca(II); cited from earlier work
[3] = system: U87MG (human glioma) cells; test: MTT cytotoxicity assay; assay type: cell-based; conditions: in the presence of 2.5 mM Ca(II)
Protocol: The cytotoxicity of Gd@C-dots was evaluated with U87MG (human glioma) cells using 3-(4, 5-dimethylthiazolyl-2)-2,5-diphenyltetrazolium bromide (MTT) assays. 2.5 mM Ca(II) was added into the incubation medium; while posing no direct toxicities to cells, such a high concentration of calcium can cause transmetallation to Gd complexes, leading to liberation of free Gd (Corot, C., et al., J. Magn. Reson. Imaging 1998, 8:695). […] The low toxicity was again attributed to the great resistance of Gd@C-dots against biodegradation and transmetallation.
c(RGDyK) affords strong binding affinity toward integrin αvβ3, a cancer biomarker that is seen overexpressed on neoplastic blood vessels and in many types of cancer cells. So the resulting conjugates (hereafter designated as RGD-Gd@C-dots) and unmodified Gd@C-dots were incubated with U87MG cells and imaged under a fluorescence microscope (ex/em: 360/460 nm). Specifically, U87MG cells were cultured in DMEM supplemented with 2 mM L-glutamine, 1.5 g/L sodium bicarbonate, 0.1 mM nonessential amino acids, 1.0 mM sodium pyruvate, and 10% fetal bovine serum at 37° C. in a humidified atmosphere with 5% CO2. 10^5 U87MG cells were seeded in 96-well plates (1×10^4 cells per well) 24 h prior to the experiments. […] The slides were mounted and imaged under an Olympus X71 fluorescence microscope.

Structure (SMILES): O=C([O-])CN(CCN(CC(=O)[O-])CC(=O)O)CCN(CC(=O)[O-])CC(=O)O.[Gd+3] [Gd-DTPA]
- r1 relaxivity [1]: 3.1 mM⁻¹ s⁻¹
- toxicity under normal cell culture conditions [2]: no toxicities
- IC50 (cytotoxicity) [3]: 33.1 µg/mL
